According to PMC5218887 (Neurochemistry International, 2017):
“Also recorded” adds a separate entry of the source. Non-standard residues stand in square brackets, D forms with d. Primed or numbered codes have the meaning given here. No end group written: not given here. pS′ = not defined here

Columns and labels:
[1] = target: T1, human GPR139 (Homo sapiens, UniProt Q6DWJ6); test: Fluo-4 Ca2+-assay, agonist testing on CHO-GPR139; type: cell-based; conditions: for agonist activity on GPR139: CHO-GPR139, result in words; for relative Emax ± SEM: compared to Emax of cmp1a
T1 sequence (Q6DWJ6 1-353): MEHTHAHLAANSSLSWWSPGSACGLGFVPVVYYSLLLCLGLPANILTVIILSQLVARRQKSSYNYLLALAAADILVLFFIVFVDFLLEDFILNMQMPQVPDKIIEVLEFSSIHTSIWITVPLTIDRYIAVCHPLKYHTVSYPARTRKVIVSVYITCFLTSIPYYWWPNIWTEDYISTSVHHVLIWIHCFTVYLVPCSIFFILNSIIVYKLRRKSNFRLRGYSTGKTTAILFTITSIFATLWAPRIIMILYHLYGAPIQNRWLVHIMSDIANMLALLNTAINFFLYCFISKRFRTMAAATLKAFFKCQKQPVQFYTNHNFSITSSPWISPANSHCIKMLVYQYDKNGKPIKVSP

[2] = target: T1, human GPR139; test: Fluo-4 Ca2+-assay, antagonist testing against EC80; type: cell-based; conditions: against EC80 (800 nM) of cmp1a; data not shown
[3] = tested on: GPR139; conditions: rats; ref Liu et al., 2015; cited from earlier work
[4] = tested on: GPR139; conditions: read-out: EC50 on GPR139; ref Isberg et al., 2014; cited from earlier work
[5] = target: T2, human muscarinic acetylcholine receptor M1 (Homo sapiens, UniProt P11229); test: Fluo-4 Ca2+-assay on CHO-M1; type: cell-based; conditions: CHO-M1, specificity test; data not shown
T2 sequence (P11229 1-460): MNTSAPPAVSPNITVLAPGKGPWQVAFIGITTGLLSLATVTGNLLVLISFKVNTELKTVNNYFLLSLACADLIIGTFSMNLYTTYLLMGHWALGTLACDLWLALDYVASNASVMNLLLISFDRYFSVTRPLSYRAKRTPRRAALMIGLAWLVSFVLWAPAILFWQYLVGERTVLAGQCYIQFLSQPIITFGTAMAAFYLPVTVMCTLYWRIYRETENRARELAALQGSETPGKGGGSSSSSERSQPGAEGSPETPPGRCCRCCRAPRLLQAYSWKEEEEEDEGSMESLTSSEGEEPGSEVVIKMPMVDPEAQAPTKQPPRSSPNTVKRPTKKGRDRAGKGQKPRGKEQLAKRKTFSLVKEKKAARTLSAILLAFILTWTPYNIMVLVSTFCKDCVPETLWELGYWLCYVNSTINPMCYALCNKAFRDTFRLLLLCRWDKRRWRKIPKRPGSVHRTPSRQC

[6] = target: MC4R (Homo sapiens, UniProt P32245); test: cAMP accumulation assay; type: cell-based; conditions: tested in the highest concentration; normalized to Emax of α-MSH
Chain of MC4R (P32245 whole entry, species assumed): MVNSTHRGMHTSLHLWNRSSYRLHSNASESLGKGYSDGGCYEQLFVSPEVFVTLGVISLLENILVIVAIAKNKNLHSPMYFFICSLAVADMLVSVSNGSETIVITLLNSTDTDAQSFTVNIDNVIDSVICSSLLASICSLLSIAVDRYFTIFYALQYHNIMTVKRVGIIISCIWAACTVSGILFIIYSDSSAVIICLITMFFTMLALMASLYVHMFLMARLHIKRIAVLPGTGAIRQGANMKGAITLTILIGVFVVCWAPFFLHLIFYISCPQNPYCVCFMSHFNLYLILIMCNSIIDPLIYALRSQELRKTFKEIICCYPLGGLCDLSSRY

agonist activity on GPR139 [1] | antagonist activity on GPR139 [2] | Compound | other results
No agonist or antagonist activity | No agonist or antagonist activity | 26RFa | –
No agonist or antagonist activity | No agonist or antagonist activity | [Arg^8]-vasopressin | –
No agonist or antagonist activity | No agonist or antagonist activity | melanin-concentrating hormone [MCH] | –
No agonist or antagonist activity | No agonist or antagonist activity | oxytocin | –

Continued, compound first:

Compound | agonist activity on GPR139 [1] | antagonist activity on GPR139 [2] | other results
N=C(N)NCCC[C@H](NC(=O)[C@H](Cc1ccccc1)NC(=O)[C@@H](N)Cc1c[nH]cn1)C(=O)N[C@@H](Cc1c[nH]c2ccccc12)C(=O)O [HFRW] | – | – | Emax ([1]; read-out: relative Emax ± SEM): 64 ± 6%
C[C@H](NC(=O)CNC(=O)c1cccc(Cl)c1)c1ccccc1 [JNJ-63533054] | – | – | spontaneous locomotion activity [3]: decreased spontaneous locomotion activity
N[C@@H](Cc1ccccc1)C(=O)O [L-Phe, L-phenylalanine] | – | – | EC50 [4]: 320 µM
N[C@@H](Cc1c[nH]c2ccccc12)C(=O)O [L-Trp, L-tryptophan] | – | – | EC50 [4]: 220 µM
CSCC[C@H](NC(=O)[C@H](CO)NC(=O)[C@H](Cc1ccc(O)cc1)NC(=O)[C@H](CO)NC(C)=O)C(=O)N[C@@H](CCC(=O)O)C(=O)N[C@@H](Cc1c[nH]cn1)C(=O)N[C@@H](Cc1ccccc1)C(=O)N[C@@H](CCCNC(=N)N)C(=O)N[C@@H](Cc1c[nH]c2ccccc12)C(=O)NCC(N)=O [cap-α-MSH1-10] | – | – | Emax at 14 µM ([1]; read-out: relative Emax ± SEM): 31 ± 4%
COc1cc(OC)cc(C(=O)NNC(=O)Nc2cccc3ccccc23)c1 [compound 1a, 2-(3,5-dimethoxybenzoyl)-N-(naphthalen-1-yl)hydrazine-1-carboxamide] | – | – | EC80 on GPR139 ([1]; concentration used for antagonist testing): 0.8 µM
CSCC[C@H](NC(=O)[C@H](CCCNC(=N)N)NC(=O)[C@H](Cc1ccc(O)cc1)NC(=O)[C@@H]1CCCN1C(=O)CNC(=O)[C@H](CCC(=O)O)NC(=O)[C@H](CC(=O)O)NC(=O)[C@H](CCCCN)NC(=O)[C@H](CCCCN)NC(=O)[C@H](CCC(=O)O)NC(=O)[C@H](C)N)C(=O)N[C@@H](CCC(=O)O)C(=O)N[C@@H](Cc1c[nH]cn1)C(=O)N[C@@H](Cc1ccccc1)C(=O)N[C@@H](CCCNC(=N)N)C(=O)N[C@@H](Cc1c[nH]c2ccccc12)C(=O)NCC(=O)N[C@@H](CO)C(=O)N1CCC[C@H]1C(=O)N1CCC[C@H]1C(=O)N[C@@H](CCCCN)C(=O)N[C@@H](CC(=O)O)C(=O)O [β-MSH] | showed agonist activity | – | fold more potent on GPR139 than L-Trp and L-Phe ([1]; compared with L-Trp (EC50 = 220 μM) and L-Phe (EC50 = 320 μM)): 20–120 fold; Emax ([1]; read-out: relative Emax ± SEM): 101 ± 11%; activity on the muscarinic acetylcholine M1 receptor [5]: none of these peptides showed any activity
Ac-SYSMEHFRW-NH2 [cap-α-MSH1-9] | – | – | Emax at 61 µM ([1]; read-out: relative Emax ± SEM): 53 ± 9%; response of α-MSH on MC4R [6]: 50%
MEHFRWG [α-MSH4-10] | – | – | relative Emax ± SEM ([1]; at 101 μM (highest concentration tested, no plateau)): 13 ± 2 (at 101 μM) %
SY[pSer]SMEHFRWGKPV-NH2 (N-terminal SY[pSer]; C-terminal amide) [α-MSHP-Ser] | neither of the two peptides showed any agonist or antagonist activity | neither of the two peptides showed any agonist or antagonist activity | –
SY[pSer]SMEHFRWGKPVGKK (SY[pS′]SMEHFRWGKPVGKK) [ACTH1-16,P-Ser] | neither of the two peptides showed any agonist or antagonist activity | neither of the two peptides showed any agonist or antagonist activity | –
cap-α-MSH4-10: α-MSH4-10 (MEHFRWG), N-terminal acetylated and C-terminal amidated | – | – | relative Emax ± SEM ([1]; at 16 μM (highest concentration tested, no plateau)): 21 ± 8 (at 16 μM) %
thyrotropin releasing hormone [TRH] | No agonist or antagonist activity | No agonist or antagonist activity | –
γ1-melanocyte stimulating hormone [γ1-MSH] | No agonist or antagonist activity; also recorded: did not show any activity | No agonist or antagonist activity | –
